“Also recorded” adds a separate entry of the source.
Legend:
[1] = tested on: S. aureus SH1000 mature biofilms; test: S. aureus biofilm implant in vitro killing assay (mature biofilm on Kirschner wire, CFU analysis); format: cell-based, Staphylococcus aureus; settings: for time to achieve 99.9% reduction of biofilm CFU compared to untreated implant pieces: treated in MHB media
Method: (§1) Bacterial strains and culture. S. aureus SH1000 was used for in vitro assays and the PJI animal model. SH1000 was inoculated in Tryptic Soy Broth (TSB, Becton Dickinson and Company) overnight at 37° C. with shaking at 250 rpm. Strains were diluted in Mueller Hinton Broth (MHB; Bectin Dickinson and Company) to a final concentration of 0.5×10^6 CFU/ml using the 0.5 MacFarland Standard (GFS Chemicals) and an Infinite M200 Spectrophotometer (Tecan). WLBU-2 (PLG0206) was supplied by Peptilogics (San Jose, California). All experiments were performed at least in triplicate at three separate times with freshly inoculated cultures.
S. aureus biofilm implant in vitro killing assays. Implant material was prepared from 0.6 mm diameter stainless steel Kirschner wire (Synthes) and cut into 6 mm length, autoclaved, and plated in wells along with SH1000 and all clinical strains at 1×10^6 CFU/ml. After plating, fresh MHB media was exchanged at 24 hours. At 48 hours, wire with mature biofilms were either placed into fresh MHB with either cefazolin or WLBU-2. Biofilms were treated with cefazolin at 0.13, 0.25, 0.5, and 1 mg/ml or WLBU-2 at 62, 125, 250, and 500 μg/ml. Cefazolin treated biofilm were removed 2, 6, and 24 hours after drug addition, WLBU-2 treated biofilm were removed 5 min, 20 min, 60 min, and 2 hours after drug addition. After treatment, Kirschner wires were placed in 1 ml of 1% Tween 20 and sonicated for 10 minutes. Sonicate was serially diluted and plated on TSA II with 5% sheep blood CS100 plates blood agar for colony forming unit (CFU) analysis. For pH analysis, prior to WLBU-2 addition, PBS was adjusted to more acidic pH using hydrochloric acid and more alkaline pH using ammonium hydroxide. Infected implant pieces were tested with WLBU-2 at both 0.5 and 1.0 μg/ml in PBS adjusted to pH of 6.5, 6.8, 7.0, 7.2, 7.4, and 8.0. Biofilm implant pieces were treated at very early time points of 2.5-20 minutes, then CFU analysis was performed.
as §1, with “Becton” for “Bectin”
S. aureus biofilm implant in vitro killing assays. Implant material was prepared from 0.6 mm diameter stainless steel Kirschner wire (Synthes) and cut into 6 mm length, autoclaved, and plated in wells along with SH1000 and all clinical strains at 1×10^6 CFU/ml. After plating, fresh MHB media was exchanged at 24 hours. At 48 hours, wire with mature biofilms were either placed into fresh MHB, normal saline, lactated ringers, or dPBS with fold dilutions of WLBU-2 at 62, 125, 250, 500, and 1000 μg/ml. dPBS solutions were prepared using any combination of the salt buffers listed in Table 3, dissolved in sterile, deionized water. After treatment, Kirschner wires were placed in 1 ml of 1% Tween 20 in dPBS and sonicated for 10 minutes. Sonicate was serially diluted and plated on TSA II with 5% sheep blood CS100 plates blood agar for colony forming unit (CFU) analysis. For pH analysis, prior to WLBU-2 addition, dPBS was adjusted to more acidic pH using hydrochloric acid and more alkaline pH using ammonium hydroxide. Infected implant pieces were tested with WLBU-2 at both 0.5 and 1.0 mg/ml in PBS adjusted to pH of 6.5, 6.8, 7.0, 7.2, 7.4, and 8.0. For ionic strength analysis, dPBS was adjusted to hypertonic conditions by addition of NaCl to dPBS (0.3 M) and hypotonic conditions by addition of deionized water to dPBS (0.08 M). […]

[2] = tested on: S. aureus (strain: SH1000); test: Rabbit PJI model, I&D with PLG0206 and/or systemic cefazolin, implant and tibia CFU up to Day 28; format: in vivo, Staphylococcus aureus
Method: (§2) A PJI New Zealand White Rabbit Animal model was used. A 3D printed tibia titanium implant was placed in the knee, and inoculated with S. aureus (strain: SH1000, inoculation density 2×10^6) after closure of the arthrotomy.
(§3) The rabbit is anesthetized with ketamine 40 mg/kg and xylazine 2 mg/kg during surgery. A bone tunnel in the tibial canal is created using a drill with a 1.2 mm or 1.6 mm tungsten carbide drill bit. The bone tunnel is then dried and treated to simulate acute human PJI following primary arthroplasty. A 3D printed titanium implant will then be placed in the bone tunnel and the wound closed. Prior to closure of the superficial skin layer, 0.1 mL of 2×10^6 planktonic bacteria (S. aureus; strain: SH1000; CFU/rabbit) in saline is injected into the joint space. A closure is performed, and a biofilm is allowed to become established over 2 days.
At 2 days post infection I&D will be performed on the infected joint and treatments will begin. Animals will receive treatment with an I&D alone, I&D with PLG0206, systemic treatment with cefazolin, or both PLG0206 and cefazolin When an animal dies or is sick and needs to be euthanized, the implant and a part of the tibia will be collected post mortem and bacterial burden will be determined by CFU. All surviving animals will be euthanized on Day 28 and the implant and tibia will be collected post mortem for CFU analysis.

[3] = tested on: S. aureus SH1000 biofilm on PJI implant; test: Periprosthetic Joint Infection Murine Washout Model (implant retrieved from mice, washed with peptide, CFU analysis); format: in vivo, Staphylococcus aureus; settings: mouse
Source text: Periprosthetic Joint Infection Murine Washout Model. Twelve-week-old […] female mice (Jackson) were used for all experiments. Mice were anesthetized by 2% isoflurane, hair was removed from leg and treated with betadine. With a scalpel, a medial parapatellar incision was made, and lateral displacement of the quadriceps-patellar complex allowed for visualization of the femoral intercondylar notch. With a 25-gauge needle, the femoral intramedullary canal was manually reamed. Mature S. aureus biofilm previously established on a 0.6 mm wide/6 mm long Kirschner wire (Synthes) was inserted into the reamed canal, and sutured closed. 48 hours later, mice were euthanized and the infected Kirschner wire implant were extracted, placed in WLBU-2 at 1.0 mg/ml in PBS previously pH adjusted to 6.5, 7.0, 7.2, or 7.4 for 10 minutes, and then placed 1% Tween 20 on ice. Implants were sonicated for 10 minutes. Samples were serially diluted and plated on TSA II with 5% sheep blood CS100 plates for CFU analysis.

[4] = tested on: S. aureus (strain: SH1000); test: Rabbit periprosthetic joint infection (PJI) model, ex vivo or in vivo treatment at I&D 2 days post infection, implant CFU; design: species or system Staphylococcus aureus
Method: as §2, §3
After 48 hours, animals were sacrificed and the implants were exposed to either topical cefazolin (10 mg/kg) or topical WLBU2 (1 mg/mL) in PBS (pH 7.4). Implants were sonicated 10 minutes, and colony forming unit (CFU) assay was performed on blood agar plates to quantify bacterial burden.
At 2 days post infection irrigation and debridement (I&D) was performed on the infected joint. Treatment with PLG0206 was administered at 1 mg/mL concentration (ex vivo or in vivo) and 0.5 mg/mL concentration (in vivo) at 15 (ex vivo and in vivo), and 7.5 minutes (in vivo) exposure times. For the ex vivo administration, the implant was removed and exposed to PLG0206 solution in a tube for 15 minutes. For the in vivo administration, irrigation and debridement on the joint was performed followed by PLG0206 treatment. The animals were euthanized after treatment, and the implants removed post mortem.

## Cc1nnc(SCC2=C(C(=O)O)N3C(=O)[C@@H](NC(=O)Cn4cnnn4)[C@H]3SC2)s1 [Cefazolin, reference compound]
[1]; MHB, 6 hours
  decrease in biofilm CFU over 6 hours: only a modest decrease
[1]
  time to achieve 99.9% reduction of biofilm CFU compared to untreated implant pieces: over 24 hours
[2]; cefazolin treatment alone (Group 2)
  reduction in bacterial burden: 1.5 log

## WLBU-2: RRWVRRVRRVWRRVVRVVRRWVRR (SEQ ID NO: 10); synthetically engineered cationic antimicrobial peptide (RRWVRRVRRVWRRVVRVVRRWVRR; Antimicrobial peptide WLBU-2)
[1]; 1.0 mg/ml in 6.5 pH PBS
  contact time needed to achieve a three-log reduction in biofilm CFU: 15 minutes
[1]; 1.0 mg/ml in 8.0 pH PBS
  contact time needed to achieve a three-log reduction in biofilm CFU: 2.5 minutes
[1]; PBS pH 7.4
  biofilm CFU after treatment (sterile samples): 0 CFU
[1]; PBS pH 8.0
  biofilm CFU after treatment (sterile samples): 0 CFU
[1]; dPBS at pH 7.5, 10 minutes, 62, 125, 250, 500 and 1000 μg/mL
  reduction in biofilm CFU: three-log reduction or greater; also recorded: three-log reduction
[1]; dPBS, pH 7.0, 62-1000 μg/ml, 10 minutes
  reduction in bacterial biofilm: over 99.9%
[1]; hypertonic dPBS at pH 7.5, 10 minutes
  reduction in biofilm CFU: a three-log reduction was not achieved
[1]; hypotonic dPBS at pH 7.5, 10 minutes, 62, 125, 250, 500 and 1000 μg/mL
  biofilm CFU after treatment: 0 CFU
[1]; hypotonic dPBS of 0.08 M
  time needed to obtain 0 CFU sterile samples, compared to hypertonic dPBS: less time needed
  time needed to obtain a three-log reduction, compared to hypertonic dPBS: less time needed
[1]; in buffered PBS, doses of 62-1000 μg/ml
  time to achieve a 99.9% reduction in biofilm CFU: ≤ 20 min
[1]; lactated ringers, pH 6.5, 62-1000 μg/ml, 10 minutes
  reduction in bacterial biofilm: over 99.9%
[1]; normal saline, measured pH of 5.8, 62-1000 μg/ml, 10 minutes
  reduction in bacterial biofilm CFUs: ~99%
[1]; pH of the washout solution above 7.0
  contact time needed to obtain above a 99.9% clearance of biofilms: under 5 minutes
[1]
  time to achieve 99.9% reduction of biofilm CFU compared to untreated implant pieces: under 2 hours
[3]; 1.0 mg/ml in PBS pH 7.0, 10 minutes
  biofilm CFU on PJI implant compared to No Drug group: significant reduction
[3]; 1.0 mg/ml in PBS pH 7.2, 10 minutes
  biofilm CFU on PJI implant compared to No Drug group: significant reduction
[3]; 1.0 mg/ml in PBS pH 7.4, 10 minutes
  biofilm CFU on PJI implant compared to No Drug group: significant reduction
[3]; 1.0 mg/ml in PBS, 10 minutes
  biofilm CFU on PJI implant, washout with 7.4 pH compared to washout with 6.5 pH: significantly less; also recorded: significant reduction
[4]; ex vivo treatment, 1 mg/mL, 15 minutes
  reduction in bacterial burden in comparison to control: greater than 2 log
[4]; in vivo study
  reduction in bacterial burden, 1 mg/ml for 15 minutes in comparison to 0.5 mg/ml: significantly greater reduction
[4]; in vivo treatment after I&D
  reduction in bacterial burden in comparison to control: greater than 2 log
[2]; 1 mg/ml PLG0206 in combination with cefazolin (Group 4)
  reduction in bacterial burden: 2.5 log
[2]; 1 mg/ml treatment alone (Group 3)
  bacterial burden in comparison to control: not significant

Source: patent US11951151B2, “Compositions comprising antimicrobial peptides” (University of Pittsburgh—Of the Commonwealth System of …, priority 2019, dated 2024)
